{"source": "patent US20190284136A1", "about": "“INDOLINE DERIVATIVES” (ViiV HEALTHCARE UK LIMITED, priority 2016, published 2019)", "data": [{"system": "HIV", "assay": "Table 1 IC50 of the examples (assay method not given; patent concerns inhibiting HIV replication)", "format": "cell-based", "conditions": "Human immunodeficiency virus 1", "units": {"IC50": "nM"}, "values": [{"smiles": "COc1ccc(C(=O)N2CCc3c2cc(C)c([C@H](OC(C)(C)C)C(=O)O)c3-c2ccc(C)cc2)cc1F", "note": "[Example 11, (S)-2-(tert-Butoxy)-2-(1-(3-fluoro-4-methoxybenzoyl)-6-methyl-4-(p-tolyl)indolin-5-yl)acetic acid]", "IC50": 4}, {"smiles": "COc1cc(Cl)ccc1C(=O)N1CCc2c1cc(C)c([C@H](OC(C)(C)C)C(=O)O)c2-c1cc(F)c2c(c1C)CCCO2", "note": "(atropisomer, axis not shown) [Example 72, (S)-2-(tert-Butoxy)-2-((R)-1-(4-chloro-2-methoxybenzoyl)-4-(8-fluoro-5-methylchroman-6-yl)-6-methylindolin-5-yl)acetic acid]", "IC50": 7}, {"smiles": "CNC(=O)c1cccc(C(=O)N2CCc3c2cc(C)c([C@H](OC(C)(C)C)C(=O)O)c3-c2cc(F)c3c(c2C)CCCO3)c1", "note": "(atropisomer, axis not shown) [Example 153, (S)-2-(tert-Butoxy)-2-((R)-4-(8-fluoro-5-methylchroman-6-yl)-6-methyl-1-(3-(methylcarbamoyl)benzoyl)indolin-5-yl)acetic acid]", "IC50": 125}, {"smiles": "Cc1ccc(-c2c3c(cc(C)c2C(OC(C)(C)C)C(=O)O)N(CC(=O)c2ccccc2)CCC3)cc1", "note": "(stereo not shown) [Example 207, 2-(tert-Butoxy)-2-(7-methyl-1-(2-oxo-2-phenylethyl)-5-(p-tolyl)-1,2,3,4-tetrahydroquinolin-6-yl)acetic acid]", "IC50": 3500}, {"smiles": "Cc1ccc(-c2c3c(cc(C)c2[C@H](OC(C)(C)C)C(=O)O)N(C(=O)c2ccc(F)cc2Cl)CC3)cc1", "note": "[Example 19, (S)-2-(tert-Butoxy)-2-(1-(2-chloro-4-fluorobenzoyl)-6-methyl-4-(p-tolyl)indolin-5-yl)acetic acid]", "IC50": 5}, {"smiles": "Cc1cc2c(c(-c3cc(F)c4c(c3C)CCCO4)c1[C@H](OC(C)(C)C)C(=O)O)CCN2C(=O)c1ccco1", "note": "(atropisomer, axis not shown) [Example 131, (S)-2-(tert-Butoxy)-2-((R)-4-(8-fluoro-5-methylchroman-6-yl)-1-(furan-2-carbonyl)-6-methylindolin-5-yl)acetic acid]", "IC50": 110}, {"smiles": "Cc1ccc(F)cc1C(=O)N1CCc2c1cc(C)c([C@H](OC(C)(C)C)C(=O)O)c2-c1cc(F)c2c(c1C)CCCO2", "note": "(atropisomer, axis not shown) [Example 80, (S)-2-(tert-Butoxy)-2-((R)-1-(5-fluoro-2-methylbenzoyl)-4-(8-fluoro-5-methylchroman-6-yl)-6-methylindolin-5-yl)acetic acid]", "IC50": 4}, {"smiles": "Cc1cc2c(c(-c3cc(F)c4c(c3C)CCCO4)c1[C@H](OC(C)(C)C)C(=O)O)CCN2C(=O)c1cc(Cl)ccn1", "note": "(atropisomer, axis not shown) [Example 103, (S)-2-(tert-Butoxy)-2-((R)-1-(4-chloropicolinoyl)-4-(8-fluoro-5-methylchroman-6-yl)-6-methylindolin-5-yl)acetic acid]", "IC50": 16}, {"smiles": "Cc1cc2c(c(-c3cc(F)c4c(c3C)CCCO4)c1[C@H](OC(C)(C)C)C(=O)O)CCN2C(=O)c1cc(Cl)cc(Cl)c1", "note": "(atropisomer, axis not shown) [Example 82, (S)-2-(tert-Butoxy)-2-((R)-1-(3,5-dichlorobenzoyl)-4-(8-fluoro-5-methylchroman-6-yl)-6-methylindolin-5-yl)acetic acid]", "IC50": 12}, {"smiles": "Cc1cc2c(c(-c3cc(F)c4c(c3C)CCCO4)c1[C@H](OC(C)(C)C)C(=O)O)CCN2C(=O)c1cc2ccccc2[nH]1", "note": "(atropisomer, axis not shown) [Example 129, (S)-2-(tert-Butoxy)-2-((R)-4-(8-fluoro-5-methylchroman-6-yl)-1-(1H-indole-2-carbonyl)-6-methylindolin-5-yl)acetic acid]", "IC50": 22}, {"smiles": "Cc1nc2cccc(C(=O)N3CCc4c3cc(C)c([C@H](OC(C)(C)C)C(=O)O)c4-c3cc(F)c4c(c3C)CCCO4)c2o1", "note": "(atropisomer, axis not shown) [Example 179, (S)-2-(tert-Butoxy)-2-((R)-4-(8-Fluoro-5-methylchroman-6-yl)-6-methyl-1-(2-methylbenzo[d]oxazole-7-carbonyl)indolin-5-yl)acetic acid]", "IC50": 12}, {"smiles": "Cc1cc2c(c(-c3cc(F)c4c(c3C)CCCO4)c1[C@H](OC(C)(C)C)C(=O)O)CCN2C(=O)c1ccc(F)cc1C(F)(F)F", "note": "(atropisomer, axis not shown) [Example 64, (S)-2-(tert-Butoxy)-2-((R)-1-(4-fluoro-2-(trifluoromethyl)benzoyl)-4-(8-fluoro-5-methylchroman-6-yl)-6-methylindolin-5-yl)acetic acid]", "IC50": 5}, {"smiles": "COc1ccc(C(=O)N2CCc3c2cc(C)c([C@H](OC(C)(C)C)C(=O)O)c3-c2cc(F)c3c(c2C)CCCO3)cc1C(F)(F)F", "note": "(atropisomer, axis not shown) [Example 157, (S)-2-(tert-Butoxy)-2-((R)-4-(8-fluoro-5-methylchroman-6-yl)-1-(4-methoxy-3-(trifluoromethyl)benzoyl)-6-methylindolin-5-yl)acetic acid]", "IC50": 6}, {"smiles": "Cc1ccc(F)c(C(=O)N2CCc3c2cc(C)c([C@H](OC(C)(C)C)C(=O)O)c3-c2cc(F)c3c(c2C)CCCO3)c1", "note": "(atropisomer, axis not shown) [Example 55, (S)-2-(tert-Butoxy)-2-((R)-1-(2-fluoro-5-methylbenzoyl)-4-(8-fluoro-5-methylchroman-6-yl)-6-methylindolin-5-yl)acetic acid]", "IC50": 6}, {"smiles": "Cc1cc2c(c(-c3ccc4c(c3C)CCCO4)c1[C@H](OC(C)(C)C)C(=O)O)CCN2C(=O)c1cccc2c1OCCO2", "note": "(atropisomer, axis not shown) [Example 182, (S)-2-(tert-Butoxy)-2-((R)-1-(2,3-dihydrobenzo[b][1,4]dioxine-5-carbonyl)-6-methyl-4-(5-methylchroman-6-yl)indolin-5-yl)acetic acid]", "IC50": 5}, {"smiles": "COc1ccc(C(=O)N2CCc3c2cc(C)c([C@H](OC(C)(C)C)C(=O)O)c3-c2ccc(C)cc2)cc1", "note": "[Example 13, (S)-2-(tert-Butoxy)-2-(1-(4-methoxybenzoyl)-6-methyl-4-(p-tolyl)indolin-5-yl)acetic acid]", "IC50": 11}, {"smiles": "Cc1ccc(C(=O)N2c3cc(C)c([C@H](OC(C)(C)C)C(=O)O)c(-c4cc(F)c5c(c4C)CCCO5)c3CC2(C)C)cn1", "note": "(atropisomer, axis not shown) [Example 204, (S)-2-(tert-Butoxy)-2-((R)-4-(8-Fluoro-5-methylchroman-6-yl)-2,2,6-trimethyl-1-(6-methylnicotinoyl)indolin-5-yl)acetic acid]", "IC50": 19}, {"smiles": "Cc1ccc(-c2c3c(cc(C)c2[C@H](OC(C)(C)C)C(=O)O)N(C(=O)c2ccccn2)CC3)cc1", "note": "[Example 38, (S)-2-(tert-Butoxy)-2-(6-methyl-1-picolinoyl-4-(p-tolyl)indolin-5-yl)acetic acid]", "IC50": 18}, {"smiles": "Cc1cc2c(c(-c3cc(F)c4c(c3C)CCCO4)c1[C@H](OC(C)(C)C)C(=O)O)CCN2C(=O)C1=CCCCC1", "note": "(atropisomer, axis not shown) [Example 130, (S)-2-(tert-Butoxy)-2-((R)-1-(cyclohex-1-ene-1-carbonyl)-4-(8-fluoro-5-methylchroman-6-yl)-6-methylindolin-5-yl)acetic acid]", "IC50": 4}]}]}
